BindingDB's records for doi:10.1021/jm060234e (Scientific Computing, 2006)

Target: T1, Progesterone receptor (Homo sapiens, UniProt P06401)
T1 sequence (P06401 whole entry): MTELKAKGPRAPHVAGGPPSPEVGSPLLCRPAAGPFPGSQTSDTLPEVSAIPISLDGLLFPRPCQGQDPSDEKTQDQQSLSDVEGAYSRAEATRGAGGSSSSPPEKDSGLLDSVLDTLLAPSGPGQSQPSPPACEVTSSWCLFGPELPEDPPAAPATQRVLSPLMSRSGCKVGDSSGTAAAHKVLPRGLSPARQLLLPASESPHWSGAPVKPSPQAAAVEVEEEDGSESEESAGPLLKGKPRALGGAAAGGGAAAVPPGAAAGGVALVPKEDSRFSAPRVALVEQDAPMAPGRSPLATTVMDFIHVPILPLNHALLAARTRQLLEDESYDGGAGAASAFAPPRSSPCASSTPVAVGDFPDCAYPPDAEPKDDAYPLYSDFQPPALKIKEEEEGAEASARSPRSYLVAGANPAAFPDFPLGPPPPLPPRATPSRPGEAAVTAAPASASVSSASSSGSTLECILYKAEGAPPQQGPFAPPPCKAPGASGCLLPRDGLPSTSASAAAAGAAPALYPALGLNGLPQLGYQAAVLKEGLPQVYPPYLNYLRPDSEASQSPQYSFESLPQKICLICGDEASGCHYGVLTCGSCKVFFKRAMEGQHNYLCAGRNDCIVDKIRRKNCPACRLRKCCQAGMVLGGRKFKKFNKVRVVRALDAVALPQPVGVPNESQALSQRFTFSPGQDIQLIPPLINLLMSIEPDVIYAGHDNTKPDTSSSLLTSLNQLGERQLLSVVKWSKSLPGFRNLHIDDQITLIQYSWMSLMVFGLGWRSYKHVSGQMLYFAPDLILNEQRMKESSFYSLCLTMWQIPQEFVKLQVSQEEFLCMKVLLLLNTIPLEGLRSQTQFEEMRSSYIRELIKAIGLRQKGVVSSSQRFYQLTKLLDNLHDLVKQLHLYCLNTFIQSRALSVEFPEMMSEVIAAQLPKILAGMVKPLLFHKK
Assay: Displacement of [3H]progesterone from Progesterone receptor

Ki [µM]	Structure (SMILES)
0.013	CC1=CC(C)(C)Nc2ccc3c(c21)COc1c(F)cc(F)cc1-3 [7,9-difluoro-2,2,4-trimethyl-2,5-dihydro-1H-chromeno[3,4-f]quinoline]
0.015	CC1=CC(C)(C)Nc2ccc3c(c21)Cc1c(F)cccc1-3 [10-Fluoro-1,3,3-trimethyl-4,11-dihydro-3H-indeno[2,1-f]quinoline]
